The values that follow come from patent US4311709A, “Loweralkyl substituted diphenyl polyamine as an antimicrobial agent” (priority 1979, dated 1982).

One may read the MIC as the smallest concentration in the dilution series that meets the test's criterion for growth inhibition. A higher MIC goes with a less susceptible organism. For orientation: LD50 means the dose expected to kill half of the subjects tested.

The test system of series [1] is Gram positive, gram negative bacteria, certain yeasts and various fungi. Put plainly: Antimicrobial spectrum: bacteria, yeasts and fungi destroyed or rendered static. Type of series: cell-based.
A short description of series [2]: Residues in milk after application to the udder. It is filed as in vivo, cow. The text has this: The sensitivity of the analytical method employed met the stringent criteria set by various governmental agencies.
The test system of series [3] is intact or abraded dorsal skin of shaved areas (rabbits). Nature of the series: Skin irritation, occlusive dressing 24 hours. It is filed as in vivo. The text has this: (§1) Thus instead of contributing to or initiating skin cracking and drying the diaminopropanol derivative should promote healing of damaged skin areas whether inflicted mechanically, by weather conditions or as the result of exposure to toxic chemical treatments.

Series [4] has as its system S. aureus. Nature of the series: MIC on Mueller-Hinton agar plates, mastitis pathogens. Type of series: cell-based. Particulars: Staphylococcus aureus; 18-24 hours at 37° C.; less than one colony per plate; duplicate. On the procedure: (§2) The products of this inventions have a broad inhibitory spectrum and high potency. One test system employed seven different mastitis pathogens inoculated onto separate Mueller-Hinton agar plates which contained 1, 5, 10, 20, 40, 80 or 100 mcg./ml. of the cited dihydrochloride final concentration. After incubation for 18-24 hours at 37° C., the minimal inhibitory concentration was determined as that showing less than one colony per plate; all assays were made in duplicate. The MIC's in mcg./ml. observed were: Streptococcus dysgalactiae, 1; Streptococcus uberis, 1; Streptococcus agalactiae, 1; S. aureus, 5; E. coli, 5; Klebsiella sp., 5; and Pseudomonas aeruginosa, 80.

Series [5] has as its system Streptococcus agalactiae. Described as above. Type of series: cell-based. The following applies: 18-24 hours at 37° C., less than one colony per plate, duplicate. The procedure:
as §2

The test system of series [6] is Klebsiella sp. The series is described as above. Type of series: cell-based. Particulars: 18-24 hours at 37° C., less than one colony per plate, duplicate. The procedure:
as §2

Series [7] concerns E. coli. Described as above. The following applies: Escherichia coli; 18-24 hours at 37° C.; less than one colony per plate; duplicate. It is filed as cell-based. On the procedure: as §2
In series [8] the test system is Streptococcus dysgalactiae. The series is described as above. It is filed as cell-based. Particulars: 18-24 hours at 37° C., less than one colony per plate, duplicate. On the procedure: as §2
Series [9] has as its system Streptococcus uberis. The series is described as above. Particulars: 18-24 hours at 37° C., less than one colony per plate, duplicate. Type of series: cell-based. The procedure:
as §2

In series [10] the test system is Pseudomonas aeruginosa. The description is as above. Type of series: cell-based. Particulars: 18-24 hours at 37° C., less than one colony per plate, duplicate. On the procedure:
as §2

Series [11] concerns S. aureus. Put plainly: Excised cow's udder teat dip in vitro (modified National Mastitis Council's Protocol A). Particulars: Staphylococcus aureus, 10 min, 0.5% solution. On the procedure: (§3) Additional efficacy studies were made using a laboratory modification of the National Mastitis Council's Protocol A with excised cow's udder in vitro. Prepared teats were dipped to a depth of approximately 15 mm. into a skim milk inoculum containing the test bacteria and then allowed to drain for 5 minutes. Then each teat was dipped into a distilled water solution of the cited dihydrochloride salt using concentrations which ranged from 0.05 up to 1% to a depth of 25 mm. After a period of 10 minutes the removal of any surviving organisms was accomplished by rinsing the teats using 5 ml. of a quenching solution of lecithin (0.05%), tween-80 (0.5%) and sodium thiosulfate (0.5%). The rinse solutions were diluted in sterile saline, plated on an appropriate medium and incubated at 37° C. for 18-20 hours. Colonies were then counted for only those plates with 15-300 colonies, and all dilutions were plated in duplicate. The percent reduction in microorganisms on the teat surfaces was determined using as controls the inoculated teats dipped in sterile distilled water. […] A 0.1% solution caused a 99% reduction for Pseudomonas aeruginosa.

Series [12] has as its system Streptococcus agalactiae. Described as above. The following applies: 10 min, 0.5% solution. On the procedure: as §3
Series [13] relates to Klebsiella sp. The description is as above. The following applies: 10 min, 0.5% solution. The procedure:
as §3

The test system of series [14] is E. coli. Described as above. Particulars: Escherichia coli, 10 min, 0.5% solution. On the procedure:
as §3

Series [15] relates to Streptococcus dysgalactiae. The description is as above. Particulars: 10 min, 0.5% solution. The procedure: as §3
Series [16] has as its system Streptococcus uberis. Described as above. The following applies: 10 min, 0.5% solution. On the procedure:
as §3

Series [17] concerns Pseudomonas aeruginosa. The series is described as above. The following applies: 10 min. The procedure:
as §3

A further series is described as follows: in vivo. The following applies: mouse, mice, oral, 100 mg./ml. in 1% aqueous methylcellulose (100 cps), read-out: acute oral LD50.
Excerpt: as §1

In another series the test system is eye. Particulars: in vivo.
Excerpt: as §1

Series [18] in a line: Toxicity and skin irritation, overall. Type of series: in vivo.
Excerpt: as §1

Series [19] has as its system gram negative pathogens such as Pseudomonas species. Particulars: background statement; cited from earlier work.

Bounds are passed on as bounds.

In the case of `CC(C)c1ccc(CCC(CCc2ccc(C(C)C)cc2)NCC(O)CN)cc1` (stereo not shown) [Example 1, 1-Amino-3-{{3-[4-(1-methylethyl)phenyl]-1-{2-[4-(1-methylethyl)phenyl]ethyl}propyl}amino]-2-propanol], in [1] (many organisms), the “concentrations by which many are controlled” value is “one to one-hundred”. The “concentrations by which bacteria, yeasts and fungi are destroyed or rendered static” value in [1] (overall range) was “less than one to one-thousand”.
With `CC(C)c1ccc(CCC(CCc2ccc(C(C)C)cc2)NCC(O)CN)cc1.Cl.Cl.O` (stereo not shown) [cited dihydrochloride, 1-amino-3-{{3-[4-(1-methylethyl)phenyl]-1-{2-[4-(1-methylethyl)phenyl]ethyl}propyl}amino]-2-propanol dihydrochloride monohydrate], in series [2] (1% solution applied to the udder, preliminary experiments), the “residues in the milk” value was “no detectable residues”. In addition, the skin penetration entry in series [2] (bovine) is listed as “appears unable to penetrate the skin”. Further, the skin irritation entry in [3] (1% solution in distilled water, intact or abraded skin, 24 hours occlusive, observed two weeks) was “essentially non-irritating”; in series [3] (5% in distilled water), “slightly irritating”. The “signs of skin irritation remaining” value in series [3] (5% in distilled water, after seven days) is “no signs remaining after seven days”. Further, the MIC in the series on S. aureus [4] stood at 5 µg/mL; with Streptococcus agalactiae [5], 1 µg/mL; in the series on Klebsiella sp. [6], 5 µg/mL; with E. coli [7] it was 5 µg/mL; in series [8] it was 1 µg/mL; against Streptococcus uberis [9], 1 µg/mL. This compound also had a minimal inhibitory concentration (MIC) against Pseudomonas aeruginosa [10] of 80 µg/mL. Moreover, the killing at 0.5 % is 98 to 99.8% in the series on S. aureus [11]; above 99.8% in the series on Streptococcus agalactiae [12]; above 99.8% in the series with Klebsiella sp. [13]; above 99.8% in the series on E. coli [14]; 98 to 99.8% in series [15]; above 99.8% in the series on Streptococcus uberis [16]. For the same compound, the killing at 0.5 % in the series on Pseudomonas aeruginosa [17] (0.5% solution) was above 99.8%. Moreover, the killing at 0.1 % in the series with Pseudomonas aeruginosa [17] (0.1% solution, read-out: reduction) is 99%. Moreover, the LD50 in the series “in vivo” is 1300 mg/kg. Also, the eye irritation result in the series with eye was “very slightly irritating”. Moreover, the “time for eye effects to disappear” value in the series with eye was at most 24 h. The “skin irritation, overall” value in [18] (in vivo) is recorded as “practically non-irritating on skin”. Besides, the toxicity result in [18] (overall statement) is “low toxicity”.
Regarding `[H]/N=C(\N/C(=N/[H])NCCCCCCNC(=N)NC(=N)Nc1ccc(Cl)cc1)Nc1ccc(Cl)cc1` [chlorhexidine], in series [19], the “effectiveness against gram negative pathogens” value is on record as “poorly effective”.
